# Experimental data reported in ChEMBL document CHEMBL1122304, “Synthesis and antiallergy activity of 5-oxo-5H-thiazolo[2,3-b]quinazolinecarboxylic acids” (1983).
# How the values were obtained:
# Type in all cases: functional
# Rattus norvegicus [1] = test: Antiallergic activity in the rat passive cutaneous anaphylaxis (PCA) test upon peroral administration; (range = 0.18-0.61); conditions: po, read-out: ID50 (the source's name)
# Rattus norvegicus [2] = test: Antiallergic activity in the rat passive cutaneous anaphylaxis (PCA) test at 16 mg/kg upon intraperitoneal administration; conditions: ip
# Rattus norvegicus [3] = test: Antiallergic activity in the rat passive cutaneous anaphylaxis (PCA) test at 32 mg/kg upon peroral administration; conditions: route oral
# Rattus norvegicus [4] = test: Antiallergic activity in the rat passive cutaneous anaphylaxis (PCA) test upon peroral administration;(range = 0.07-0.23); conditions: po, read-out: ID50 (the source's name)
# Rattus norvegicus [5] = test: Antiallergic activity in the rat passive cutaneous anaphylaxis (PCA) test upon peroral administration; conditions: po, read-out: ID50 (the source's name)
# Rattus norvegicus [6] = test: Antiallergic activity in the rat passive cutaneous anaphylaxis (PCA) test upon intraperitoneal administration of 16 mg/kg of the compound; conditions: ip
# Rattus norvegicus [7] = test: Antiallergic activity in the rat passive cutaneous anaphylaxis (PCA) test at 32 mg/kg upon peroral administration after 10-minute pretreatment time; conditions: route oral
# Rattus norvegicus [8] = test: Antiallergic activity in the rat passive cutaneous anaphylaxis (PCA) test upon intraperitoneal administration of 8 mg/kg of the compound; conditions: ip
# Rattus norvegicus [9] = test: Antiallergic activity in the rat passive cutaneous anaphylaxis (PCA) test upon peroral administration; (range = 2.14-29.01); conditions: po, read-out: ID50 (the source's name)
# Rattus norvegicus [10] = test: Antiallergic activity in the rat passive cutaneous anaphylaxis (PCA) test upon peroral administration; (range of 0.89-6.85); conditions: po, read-out: ID50 (the source's name)
# Rattus norvegicus [11] = test: Antiallergic activity in the rat passive cutaneous anaphylaxis (PCA) test upon peroral administration; (range = 0.58-1.91); conditions: po, read-out: ID50 (the source's name)
# Rattus norvegicus [12] = test: Antiallergic activity in the rat passive cutaneous anaphylaxis (PCA) test upon peroral administration; (range = 0.98-4.02); conditions: po, read-out: ID50 (the source's name)
# Rattus norvegicus [13] = test: Antiallergic activity in the rat passive cutaneous anaphylaxis (PCA) test at 32 mg/kg upon peroral administration with a 10-minute pretreatment time; conditions: route oral
# Rattus norvegicus [14] = test: Antiallergic activity in the rat passive cutaneous anaphylaxis (PCA) test upon peroral administration; (range = 0.04-0.14); conditions: po, read-out: ID50 (the source's name)
# Rattus norvegicus [15] = test: Antiallergic activity in the rat passive cutaneous anaphylaxis (PCA) test upon peroral administration; (range = 0.08-0.18); conditions: po, read-out: ID50 (the source's name)
compound,measurement,setting,value
CC(C)c1ccc2nc3sc(C(=O)O)cn3c(=O)c2c1,ED50,Rattus norvegicus [1],0.33 mg/kg
same,inhibition in vivo at 16 mg/kg,Rattus norvegicus [2],89%
same,inhibition in vivo at 32 mg/kg,Rattus norvegicus [3],86%
CSc1ccc2nc3sc(C(=O)O)cn3c(=O)c2c1,ED50,Rattus norvegicus [4],0.12 mg/kg
same,inhibition in vivo at 32 mg/kg,Rattus norvegicus [3],87%
O=C(O)c1ccc2nc3sccn3c(=O)c2c1,ED50,Rattus norvegicus [5],> 10 mg/kg
same,inhibition in vivo at 32 mg/kg,Rattus norvegicus [3],66%
same,inhibition in vivo at 16 mg/kg,Rattus norvegicus [6],62%
O=C(O)c1cc(=O)c2c(OCC(O)COc3cccc4oc(C(=O)O)cc(=O)c34)cccc2o1 [CROMOLYN SODIUM],inhibition in vivo at 32 mg/kg,Rattus norvegicus [7],18%
same,inhibition in vivo at 8 mg/kg,Rattus norvegicus [8],46%
O=C(O)c1cn2c(=O)c3ccccc3nc2s1,inhibition in vivo at 16 mg/kg,Rattus norvegicus [6],80%
Cc1cn2c(=O)c3cc(C(=O)O)ccc3nc2s1,ED50,Rattus norvegicus [5],> 10 mg/kg
same,inhibition in vivo at 32 mg/kg,Rattus norvegicus [3],79%
O=C(O)c1cn2c(=O)c3cc(C4CC4)ccc3nc2s1,inhibition in vivo at 32 mg/kg,Rattus norvegicus [3],100%
same,ED50,Rattus norvegicus [9],6.02 mg/kg
CC(C)Cc1ccc2nc3sc(C(=O)O)cn3c(=O)c2c1,ED50,Rattus norvegicus [10],2.12 mg/kg
same,inhibition in vivo at 32 mg/kg,Rattus norvegicus [7],78%
same,inhibition in vivo at 16 mg/kg,Rattus norvegicus [6],62%
CCC(C)c1ccc2nc3sc(C(=O)O)cn3c(=O)c2c1 (stereo unspecified),ED50,Rattus norvegicus [11],1.01 mg/kg
same,inhibition in vivo at 32 mg/kg,Rattus norvegicus [7],64%
same,inhibition in vivo at 16 mg/kg,Rattus norvegicus [6],59%
C[S+]([O-])c1ccc2nc3sc(C(=O)O)cn3c(=O)c2c1 (stereo unspecified),ED50,Rattus norvegicus [12],1.82 mg/kg
same,inhibition in vivo at 32 mg/kg,Rattus norvegicus [13],67%
same,inhibition in vivo at 16 mg/kg,Rattus norvegicus [6],55%
COc1ccc2nc3sc(C(=O)O)cn3c(=O)c2c1,ED50,Rattus norvegicus [14],0.07 mg/kg
same,inhibition in vivo at 32 mg/kg,Rattus norvegicus [3],78%
same,inhibition in vivo at 16 mg/kg,Rattus norvegicus [6],100%
COc1cc2nc3sc(C(=O)O)cn3c(=O)c2cc1OC,inhibition in vivo at 16 mg/kg,Rattus norvegicus [6],89%
CC(C)c1cn2c(=O)c3cc(C(=O)O)ccc3nc2s1,ED50,Rattus norvegicus [15],0.11 mg/kg
same,inhibition in vivo at 32 mg/kg,Rattus norvegicus [3],100%
same,inhibition in vivo at 16 mg/kg,Rattus norvegicus [6],100%
CC(C)c1cc(C(C)C)c2nc3sc(C(=O)O)cn3c(=O)c2c1,ED50,Rattus norvegicus [5],> 10 mg/kg
same,inhibition in vivo at 16 mg/kg,Rattus norvegicus [2],100%
same,inhibition in vivo at 32 mg/kg,Rattus norvegicus [3],19%
CC(C)c1cc2c(=O)n3cc(C(=O)O)ccc3nc2s1,inhibition in vivo at 16 mg/kg,Rattus norvegicus [2],89%
same,inhibition in vivo at 32 mg/kg,Rattus norvegicus [3],54%
